# Target: T1, human TAS1R2-A574T (subunit alone) (Homo sapiens, UniProt Q8TE23, A574T)
# T1 construct: expressed in transfected cells; host or cells: HEK293T-Gα16gust44
# T1 sequence (Q8TE23 20-839 A574T): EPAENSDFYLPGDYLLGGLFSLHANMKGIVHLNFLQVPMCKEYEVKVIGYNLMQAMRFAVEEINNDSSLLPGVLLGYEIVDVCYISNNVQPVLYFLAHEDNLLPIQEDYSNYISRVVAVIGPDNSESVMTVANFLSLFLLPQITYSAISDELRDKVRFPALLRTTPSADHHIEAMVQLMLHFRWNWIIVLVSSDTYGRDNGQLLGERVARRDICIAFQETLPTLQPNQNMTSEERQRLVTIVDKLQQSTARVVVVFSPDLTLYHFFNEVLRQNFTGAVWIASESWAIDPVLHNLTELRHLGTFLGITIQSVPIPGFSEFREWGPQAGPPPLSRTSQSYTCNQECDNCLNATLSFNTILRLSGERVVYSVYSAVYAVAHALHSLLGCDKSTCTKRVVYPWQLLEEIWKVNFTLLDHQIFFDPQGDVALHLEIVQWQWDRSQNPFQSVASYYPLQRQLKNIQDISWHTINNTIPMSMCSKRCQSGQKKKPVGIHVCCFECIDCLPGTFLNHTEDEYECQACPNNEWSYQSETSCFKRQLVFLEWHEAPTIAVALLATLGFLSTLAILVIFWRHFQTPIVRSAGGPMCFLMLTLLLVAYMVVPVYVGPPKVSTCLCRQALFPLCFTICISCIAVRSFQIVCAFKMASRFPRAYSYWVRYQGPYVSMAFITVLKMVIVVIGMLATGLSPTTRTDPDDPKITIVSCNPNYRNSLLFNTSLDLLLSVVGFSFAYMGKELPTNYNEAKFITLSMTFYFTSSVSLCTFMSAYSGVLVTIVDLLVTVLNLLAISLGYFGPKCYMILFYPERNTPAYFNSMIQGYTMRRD
# Test: Calcium mobilisation assay, TAS1R2-A574T subunit alone
# Type: cell-based
# Source text: The coding sequences for TAS1R2 and TAS1R3 were commercially synthesised, and the human codon was optimised for expression in human cells. The coding sequences of human TAS1R2 and TAS1R3 were subcloned and inserted into the mammalian expression vectors pcDNA6/myc-HisA and pcDNA4/myc-HisA (Invitrogen; Thermo Fisher Scientific; Illkirch, France) between the EcoRI and NotI restriction sites, generating the plasmids pcDNA6-TAS1R2 and pcDNA4-TAS1R3, respectively. To increase protein expression in mammalian cells, an upstream start codon was used, which was a sequence called MAX, corresponding to the QBI SP163 element also described in pcDNA4-HisMax (Invitrogen; Thermo Fisher Scientific; Illkirch, France). To measure the expression level of the receptor by immunohistochemistry, we used the FLAG sequence ([…]) in the C-terminal position, which encodes the FLAG tag epitope. […]
# The HEK293T cells were kindly provided by Jay P. Slack (Givaudan Flavors Corporation; Cincinnati, OH, USA). […] The fluorescence intensity was measured for 90 s (excitation 488 nm, emission 510 nm) in an automated fluorometric FlexStation®3 Multi-Mode microplate reader (Molecular Devices; San Jose, CA, USA). […] The Ca^2+ changes were expressed as fractional changes in fluorescent light intensity: ΔF/F = (F − F0)/F0, where F was the fluorescent light intensity at each point, and F0 was the value of emitted fluorescent light prior to stimulus application. To calculate dose–response relationships, the changes in fluorescence upon stimulus application were averaged, mock-subtracted and baseline-corrected. […] The half-maximal effective concentrations (EC50 values) and maximal signal amplitudes were calculated using SigmaPlot software (version 15.0) (Systat Software; San Jose, CA, USA).
# For in vitro calcium mobilisation assay performed on hTAS1R2-SNPs, hTAS1R3-SNPs and mTAS1R3-I60T, 6 to 7 concentrations were tested for each sweet compound, plus buffer alone. All concentration–receptor combinations were measured in duplicate, and each experiment was repeated at least 4 times (8 wells/concentration). […]
smiles,measurement,setting,value
"C=C(C)[C@@H]1CC=C(/C=N/O)CC1 [Perillartine, perillartine]",EC50,,85.3 ± 12.4 µM
same,R1 = Variant EC50/WT EC50,,0.9
same,Max ΔF/F0,maximal signal amplitude,0.25 ± 0.01

# — article PMC11945486, “TAS1R2/TAS1R3 Single-Nucleotide Polymorphisms Affect Sweet Taste Receptor Activation by Sweeteners: The SWEET Project” (Nutrients, 2025)
